Read-outs that look alike come from different tables or passages of the source.
How the values were obtained:
[1] = system: nude mice of bone metastasis model (PC-3, MDA-MB-231, left tibia)
Protocol: The nude mice of the bone metastasis model were established by tibial bone marrow injection. The specific methods were as follows: 25 μL of prostate cancer PC-3 and breast cancer MDA-MB-231 cell culture medium were injected into the left tibial bone marrow cavity of healthy male and female nude mice, respectively. At approximately 3-4 weeks after inoculation, they were scanned by microcomputed tomography (CT, SIEMENS InveonTM, Munich, Germany) to determine the condition of the model. […] Bone metastases were initially evaluated by CT and confirmed by pathology after the completion of related studies.
Ten PC-3 and ten MDA-MB-231 nude mice with bone metastasis were randomly divided into five groups. The mice were sacrificed by CO2 asphyxiation at 1 h, 3 h, 6 h, 24 h, and 48 h. The important tissue and organ samples were collected for the biodistribution study.

[2] = system: fresh human plasma; conditions: 37°C, 2 h
Source text: The results are expressed as mean ± standard deviation ( χ¯ ± s).

Compound: CCCCCN(C)CCC1(O)P(=O)(O)[O][188Re]2([OH])([OH])([O]P1(=O)O)[O]P(=O)(O)C(O)(CCN(C)CCCCC)P(=O)(O)[O]2 (stereo not shown) [[^188Re]Re-IBA]
- %ID/g Blood ([1]; 1 h): 1.704 ± 0.348 %ID/g
- %ID/g Brain ([1]; 1 h): 0.098 ± 0.046 %ID/g
- %ID/g CB (contralateral bone) ([1]; 1 h): 9.331 ± 0.541 %ID/g
- %ID/g CS (contralateral muscle) ([1]; 1 h): 0.578 ± 0.043 %ID/g
- %ID/g Gonad ([1]; 1 h): 0.439 ± 0.162 %ID/g
- %ID/g Heart ([1]; 1 h): 0.595 ± 0.099 %ID/g
- %ID/g Kidney ([1]; 1 h): 6.004 ± 0.523 %ID/g
- %ID/g Liver ([1]; 1 h): 1.236 ± 0.219 %ID/g
- %ID/g Lung ([1]; 1 h): 1.135 ± 0.209 %ID/g
- %ID/g MB (model bone) ([1]; 1 h): 8.329 ± 0.329 %ID/g
- %ID/g Small intestine ([1]; 1 h): 0.718 ± 0.073 %ID/g
- %ID/g Spleen ([1]; 1 h): 0.530 ± 0.124 %ID/g
- %ID/g Stomach ([1]; 1 h): 3.056 ± 0.321 %ID/g
- %ID/g Thyroid gland ([1]; 1 h): 0.625 ± 0.309 %ID/g
- CB/CS ratio ([1]; 1 h): 16.144
- CB/heart ratio ([1]; 1 h): 15.682
- CB/liver ratio ([1]; 1 h): 7.549
- MB/CB ratio ([1]; 1 h): 0.893
- MB/CS ratio ([1]; 1 h): 14.411
- MB/heart ratio ([1]; 1 h): 14.003
- MB/liver ratio ([1]; 1 h): 6.738
- %ID/g Blood ([1]; 3 h): 0.531 ± 0.092 %ID/g
- %ID/g Brain ([1]; 3 h): 0.082 ± 0.017 %ID/g
- %ID/g CB (contralateral bone) ([1]; 3 h): 7.717 ± 4.349 %ID/g
- %ID/g CS (contralateral muscle) ([1]; 3 h): 0.524 ± 0.172 %ID/g
- %ID/g Gonad ([1]; 3 h): 0.231 ± 0.068 %ID/g
- %ID/g Heart ([1]; 3 h): 0.326 ± 0.175 %ID/g
- %ID/g Kidney ([1]; 3 h): 2.591 ± 1.120 %ID/g
- %ID/g Liver ([1]; 3 h): 0.431 ± 0.312 %ID/g
- %ID/g Lung ([1]; 3 h): 0.298 ± 0.250 %ID/g
- %ID/g MB (model bone) ([1]; 3 h): 5.922 ± 2.126 %ID/g
- %ID/g Small intestine ([1]; 3 h): 0.404 ± 0.047 %ID/g
- %ID/g Spleen ([1]; 3 h): 0.227 ± 0.141 %ID/g
- %ID/g Stomach ([1]; 3 h): 2.064 ± 0.207 %ID/g
- %ID/g Thyroid gland ([1]; 3 h): 0.282 ± 0.149 %ID/g
- CB/CS ratio ([1]; 3 h): 14.731
- CB/heart ratio ([1]; 3 h): 23.637
- CB/liver ratio ([1]; 3 h): 17.896
- MB/CB ratio ([1]; 3 h): 0.767
- MB/CS ratio ([1]; 3 h): 11.305
- MB/heart ratio ([1]; 3 h): 18.139
- MB/liver ratio ([1]; 3 h): 13.734
- %ID/g Blood ([1]; 6 h): 0.302 ± 0.092 %ID/g
- %ID/g Brain ([1]; 6 h): 0.042 ± 0.042 %ID/g
- %ID/g CB (contralateral bone) ([1]; 6 h): 7.662 ± 2.934 %ID/g
- %ID/g CS (contralateral muscle) ([1]; 6 h): 0.153 ± 0.083 %ID/g
- %ID/g Gonad ([1]; 6 h): 0.106 ± 0.022 %ID/g
- %ID/g Heart ([1]; 6 h): 0.183 ± 0.097 %ID/g
- %ID/g Kidney ([1]; 6 h): 2.587 ± 0.126 %ID/g
- %ID/g Liver ([1]; 6 h): 0.368 ± 0.054 %ID/g
- %ID/g Lung ([1]; 6 h): 0.257 ± 0.030 %ID/g
- %ID/g MB (model bone) ([1]; 6 h): 8.417 ± 1.820 %ID/g
- %ID/g Small intestine ([1]; 6 h): 0.242 ± 0.118 %ID/g
- %ID/g Spleen ([1]; 6 h): 0.176 ± 0.029 %ID/g
- %ID/g Stomach ([1]; 6 h): 1.176 ± 0.190 %ID/g
- %ID/g Thyroid gland ([1]; 6 h): 0.354 ± 0.217 %ID/g
- CB/CS ratio ([1]; 6 h): 50.044
- CB/heart ratio ([1]; 6 h): 41.876
- CB/liver ratio ([1]; 6 h): 20.818
- MB/CB ratio ([1]; 6 h): 1.099
- MB/CS ratio ([1]; 6 h): 54.970
- MB/heart ratio ([1]; 6 h): 45.999
- MB/liver ratio ([1]; 6 h): 22.867
- %ID/g Blood ([1]; 24 h): 0.045 ± 0.020 %ID/g
- %ID/g Brain ([1]; 24 h): 0.037 ± 0.020 %ID/g
- %ID/g CB (contralateral bone) ([1]; 24 h): 4.413 ± 2.225 %ID/g
- %ID/g CS (contralateral muscle) ([1]; 24 h): 0.081 ± 0.050 %ID/g
- %ID/g Gonad ([1]; 24 h): 0.069 ± 0.018 %ID/g
- %ID/g Heart ([1]; 24 h): 0.052 ± 0.027 %ID/g
- %ID/g Kidney ([1]; 24 h): 0.640 ± 0.175 %ID/g
- %ID/g Liver ([1]; 24 h): 0.089 ± 0.027 %ID/g
- %ID/g Lung ([1]; 24 h): 0.101 ± 0.038 %ID/g
- %ID/g MB (model bone) ([1]; 24 h): 6.403 ± 0.247 %ID/g
- %ID/g Small intestine ([1]; 24 h): 0.049 ± 0.003 %ID/g
- %ID/g Spleen ([1]; 24 h): 0.066 ± 0.024 %ID/g
- %ID/g Stomach ([1]; 24 h): 0.192 ± 0.092 %ID/g
- %ID/g Thyroid gland ([1]; 24 h): 0.082 ± 0.030 %ID/g
- CB/CS ratio ([1]; 24 h): 54.620
- CB/heart ratio ([1]; 24 h): 85.157
- CB/liver ratio ([1]; 24 h): 49.848
- MB/CB ratio ([1]; 24 h): 1.451
- MB/CS ratio ([1]; 24 h): 79.255
- MB/heart ratio ([1]; 24 h): 123.563
- MB/liver ratio ([1]; 24 h): 72.330
- %ID/g Blood ([1]; 48 h): 0.021 ± 0.008 %ID/g
- %ID/g Brain ([1]; 48 h): 0.021 ± 0.009 %ID/g
- %ID/g CB (contralateral bone) ([1]; 48 h): 4.737 ± 0.863 %ID/g
- %ID/g CS (contralateral muscle) ([1]; 48 h): 0.041 ± 0.022 %ID/g
- %ID/g Gonad ([1]; 48 h): 0.028 ± 0.001 %ID/g
- %ID/g Heart ([1]; 48 h): 0.035 ± 0.013 %ID/g
- %ID/g Kidney ([1]; 48 h): 0.121 ± 0.034 %ID/g
- %ID/g Liver ([1]; 48 h): 0.044 ± 0.013 %ID/g
- %ID/g Lung ([1]; 48 h): 0.047 ± 0.005 %ID/g
- %ID/g MB (model bone) ([1]; 48 h): 6.503 ± 0.010 %ID/g
- %ID/g Small intestine ([1]; 48 h): 0.030 ± 0.018 %ID/g
- %ID/g Spleen ([1]; 48 h): 0.022 ± 0.013 %ID/g
- %ID/g Stomach ([1]; 48 h): 0.027 ± 0.019 %ID/g
- %ID/g Thyroid gland ([1]; 48 h): 0.020 ± 0.010 %ID/g
- CB/CS ratio ([1]; 48 h): 115.161
- CB/heart ratio ([1]; 48 h): 133.599
- CB/liver ratio ([1]; 48 h): 106.617
- MB/CB ratio ([1]; 48 h): 1.373
- MB/CS ratio ([1]; 48 h): 158.088
- MB/heart ratio ([1]; 48 h): 183.399
- MB/liver ratio ([1]; 48 h): 146.359
- PPB (plasma protein binding rate) [2]: 79.8 ± 0.71%

— paper PMC8896928, “Preparation, Characterization, and Preliminary Imaging Study of [^188Re]Re-Ibandronate as a Novel Theranostic Radiopharmaceutical for Bone Metastasis” (Contrast Media & Molecular Imaging, 2022)
